From patent US20250368647A1, “NITROGEN CONTAINING CONDENSED 2,3-DIHYDROQUINAZOLINONE COMPOUNDS AS NAV1.8 INHIBITORS” (GLAXOSMITHKLINE INTELLECTUAL PROPERTY DEVELOPMENT LIMITED, priority 2022, published 2025)

Target: human Nav1.8 (Homo sapiens (Human), UniProt Q9Y5Y9)
Experiment: QPatch 48 HTX voltage-clamp electrophysiology, half inactivation state (V1/2) protocol, HEK293-Nav1.8 cells
Type: cell-based
Conditions: HEK293 cells expressing human Nav1.8, human Navβ1 and human TREK1, P2 current; for IC50: read-out: Nav1.8, pIC50 (converted)
How it was run: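 HEK293 cells co-expressing Navβ1 and TREK1 were voltage-clamped from −100 mV: a 20 ms step to 0 mV, 8 s inactivation at −46 mV, 20 ms at −100 mV, then a 20 ms P2 test step to 0 mV, repeated every 15 s. P2 current was normalized to vehicle and full block, corrected for run-down, and Hill-fitted (4–6 concentrations) for IC50.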

Sequence of human Nav1.8 (Q9Y5Y9 whole entry): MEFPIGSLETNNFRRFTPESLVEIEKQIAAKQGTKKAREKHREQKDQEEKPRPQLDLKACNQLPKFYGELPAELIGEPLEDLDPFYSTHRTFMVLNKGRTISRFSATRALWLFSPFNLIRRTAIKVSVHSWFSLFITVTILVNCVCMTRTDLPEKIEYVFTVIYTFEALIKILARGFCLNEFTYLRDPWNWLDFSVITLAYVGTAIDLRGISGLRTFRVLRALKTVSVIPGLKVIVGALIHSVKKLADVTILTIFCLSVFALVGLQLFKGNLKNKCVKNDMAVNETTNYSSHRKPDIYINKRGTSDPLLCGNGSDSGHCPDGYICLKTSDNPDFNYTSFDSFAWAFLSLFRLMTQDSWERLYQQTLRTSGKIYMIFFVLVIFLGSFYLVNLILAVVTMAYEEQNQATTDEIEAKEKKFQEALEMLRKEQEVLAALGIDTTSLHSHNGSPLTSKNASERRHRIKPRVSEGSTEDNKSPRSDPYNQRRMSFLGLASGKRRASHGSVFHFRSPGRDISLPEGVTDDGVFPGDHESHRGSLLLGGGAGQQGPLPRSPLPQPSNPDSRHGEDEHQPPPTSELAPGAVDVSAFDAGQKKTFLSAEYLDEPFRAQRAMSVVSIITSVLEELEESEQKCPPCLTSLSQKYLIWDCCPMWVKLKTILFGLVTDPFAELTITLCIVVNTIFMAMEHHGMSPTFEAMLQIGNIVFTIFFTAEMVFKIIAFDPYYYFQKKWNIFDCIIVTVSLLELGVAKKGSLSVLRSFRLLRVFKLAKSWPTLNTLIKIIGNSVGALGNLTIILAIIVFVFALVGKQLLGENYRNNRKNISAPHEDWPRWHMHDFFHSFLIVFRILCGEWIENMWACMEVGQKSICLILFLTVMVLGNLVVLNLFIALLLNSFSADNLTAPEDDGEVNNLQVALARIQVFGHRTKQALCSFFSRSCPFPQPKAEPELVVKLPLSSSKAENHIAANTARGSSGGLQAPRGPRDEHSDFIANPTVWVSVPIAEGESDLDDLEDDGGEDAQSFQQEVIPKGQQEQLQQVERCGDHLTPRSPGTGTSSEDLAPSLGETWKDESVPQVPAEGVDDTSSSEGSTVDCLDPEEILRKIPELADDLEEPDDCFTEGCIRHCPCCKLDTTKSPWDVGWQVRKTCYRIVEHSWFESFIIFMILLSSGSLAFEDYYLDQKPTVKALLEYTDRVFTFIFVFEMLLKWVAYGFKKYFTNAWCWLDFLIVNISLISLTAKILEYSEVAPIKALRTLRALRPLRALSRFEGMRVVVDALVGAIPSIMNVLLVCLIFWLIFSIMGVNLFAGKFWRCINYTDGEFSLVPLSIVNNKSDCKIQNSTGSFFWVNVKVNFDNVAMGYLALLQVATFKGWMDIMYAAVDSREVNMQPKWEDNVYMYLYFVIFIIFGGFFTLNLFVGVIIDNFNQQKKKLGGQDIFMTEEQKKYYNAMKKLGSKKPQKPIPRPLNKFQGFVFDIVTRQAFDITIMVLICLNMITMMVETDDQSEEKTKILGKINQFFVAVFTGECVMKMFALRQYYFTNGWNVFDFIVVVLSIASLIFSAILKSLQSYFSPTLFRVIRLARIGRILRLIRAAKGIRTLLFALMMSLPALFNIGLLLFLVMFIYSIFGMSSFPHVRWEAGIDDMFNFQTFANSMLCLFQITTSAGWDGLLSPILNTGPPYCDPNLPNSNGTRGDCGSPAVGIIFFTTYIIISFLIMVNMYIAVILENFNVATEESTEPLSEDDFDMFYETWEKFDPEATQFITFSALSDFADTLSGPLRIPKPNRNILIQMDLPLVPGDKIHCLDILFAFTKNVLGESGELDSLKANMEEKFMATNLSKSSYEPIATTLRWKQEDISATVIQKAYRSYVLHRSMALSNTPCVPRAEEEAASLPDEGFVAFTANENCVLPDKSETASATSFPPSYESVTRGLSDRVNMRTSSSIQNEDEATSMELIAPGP
Sequence of human Nav1.8 (Q07699 19-218 partner): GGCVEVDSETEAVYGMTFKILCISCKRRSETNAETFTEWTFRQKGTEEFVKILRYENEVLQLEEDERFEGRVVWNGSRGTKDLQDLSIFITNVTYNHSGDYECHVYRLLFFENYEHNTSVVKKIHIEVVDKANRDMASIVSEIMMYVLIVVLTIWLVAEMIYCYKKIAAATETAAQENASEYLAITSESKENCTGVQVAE

| Compound | Nav1.8, pIC50 | IC50 |
| --- | --- | --- |
| Cl.O=C1c2cc(F)c(C(F)(F)F)cc2N2CN1c1ccc(=O)[nH]c1CCCNCc1c2ccc(F)c1F [Example 108, 2^6,3^3,3^4-trifluoro-2^7-(trifluoromethyl)-1^1,1^2,2^1,2^2,2^3,2^4-hexahydro-5-aza-2(3,1)-quinazolina-1(5,6)-pyridina-3(1,2)-benzenacyclooctaphane-1^2,2^4-dione hydrochloride] | 7.6 |  |
| Cl.O=C1c2cc(F)c(F)cc2N2CN1c1ccc(=O)[nH]c1CCCNCc1c2ccc(F)c1Cl [Example 109, 3^3-Chloro-2^6,2^7,3^4-trifluoro-1^1,1^2,2^1,2^2,2^3,2^4-hexahydro-5-aza-2(3,1)-quinazolina-1(5,6)-pyridina-3(1,2)-benzenacyclooctaphane-1^2,2^4-dione hydrochloride] | 6.8 |  |
| Cl.N#Cc1cc2c(cc1F)C(=O)N1CN2c2ccc(F)c(Cl)c2CNCCCc2[nH]c(=O)ccc21 [Example 110, 3^3-Chloro-2^6,3^4-difluoro-1^2,2^4-dioxo-1^1,1^2,2^1,2^2,2^3 2^4-hexahydro-5-aza-2(3,1)-quinazolina-1(5,6)-pyridina-3(1,2)-benzenacyclooctaphane-2^7-carbonitrile hydrochloride] | 6.8 |  |
| Cl.O=C1c2cc(F)c(C(F)(F)F)cc2N2CN1c1ccc(=O)[nH]c1CCNCCc1cc(F)ccc12 [Example 111, 2^6,3^4-Difluoro-2^7-(trifluoromethyl)-1^1,1^2,2^1,2^2,2^3,2^4-hexahydro-6-aza-2(3,1)-quinazolina-1(5,6)-pyridina-3(1,2)-benzenacyclooctaphane-1^2,2^4-dione hydrochloride] | 7.1 |  |
| CN1CCc2cc(F)ccc2N2CN(C(=O)c3cc(F)c(C(F)(F)F)cc32)c2ccc(=O)[nH]c2CC1 [Example 112, 2^6,3^4-Difluoro-6-methyl-2^7-(trifluoromethyl)-1^1,1^2,2^1,2^2,2^3,2^4-hexahydro-6-aza-2(3,1)-quinazolina-1(5,6)-pyridina-3(1,2)-benzenacyclooctaphane-1^2,2^4-dione] | 6.2 |  |
| CN1CCCc2[nH]c(=O)ccc2N2CN(c3cc(F)c(F)cc3C2=O)c2ccc(F)c(Cl)c2C1.Cl [Example 113, 3^3-Chloro-2^6,2^7,3^4-trifluoro-5-methyl-1^1,1^2,2^1,2^2,2^3,2^4-hexahydro-5-aza-2(3,1)-quinazolina-1(5,6)-pyridina-3(1,2)-benzenacyclooctaphane-1^2,2^4-dione hydrochloride] | 6.9 |  |

Other lines, results leading:

| Nav1.8, pIC50 | IC50 | Compound |
| --- | --- | --- |
|  | 100 nM | C[C@H]1NCCc2[nH]c(=O)ccc2N2CN(c3ccc(C(F)(F)F)cc3C2=O)c2ccc(F)cc21 [Example 115, (10R)-8-fluoro-10-methyl-2-(trifluoromethyl)-10,11,12,13-tetrahydro-19H-5,18-methanodibenzo[c,f]pyrido[3,2-j][1,5,9]triazacyclotridecine-15,19(14H)-dione] |
|  | 126 nM | C[C@@H]1NCCc2[nH]c(=O)ccc2N2CN(c3ccc(C(F)(F)F)cc3C2=O)c2ccc(F)cc21 [Example 116, (10S)-8-fluoro-10-methyl-2-(trifluoromethyl)-10,11,12,13-tetrahydro-19H-5,18-methanodibenzo[c,f]pyrido[3,2-j][1,5,9]triazacyclotridecine-15,19(14H)-dione] |
|  | 31.6 nM | C[C@H]1NCCc2[nH]c(=O)ccc2N2CN(c3cc(C(F)(F)F)c(F)cc3C2=O)c2ccc(F)cc21 [Example 118, (10R)-2,8-difluoro-10-methyl-3-(trifluoromethyl)-10,11,12,13-tetrahydro-19H-5,18-methanodibenzo[c,f]pyrido[3,2-j][1,5,9]triazacyclotridecine-11(10H)-dione] |
|  | 631 nM | C[C@@H]1NCCc2[nH]c(=O)ccc2N2CN(c3cc(C(F)(F)F)c(F)cc3C2=O)c2ccc(F)cc21 [Example 119, (10S)-2,8-Difluoro-10-methyl-3-(trifluoromethyl)-10,11,12,13-tetrahydro-19H-5,18-methanodibenzo[c,f]pyrido[3,2-j][1,5,9]triazacyclotridecine-11(10H)-dione] |
